The source made the active and inactive calls.
Tests used:
[1] = biological target: Dual specificity tyrosine-phosphorylation-regulated kinase 1A (Rattus norvegicus, UniProt Q63470); type: biochemical, Homo sapiens
[2] = biological target: Dual specificity protein kinase CLK1 (Homo sapiens, UniProt P49759); assay: inhibition of human CLK1 activity – biochemical, cherry-picked samples, selectivity assay for Dyrk1A inhibitor project, dose response (AID 588811)
INS1 = assay: INS-1E survival protection against cytokine death – cell-based, luminescence, retest, dose response (AID 449756); type: functional; details: Rattus norvegicus, INS1;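 note: cell death triggered by IL-1 beta plus TNF-alpha plus IFN-gamma mixture; protective hits raise ATP signal compared with cytokine alone wells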
[3] = MIN6 cell viability loss – mouse insulinoma, cytotoxicity control, dose response (AID 2122); type: functional;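 note: confirmatory high-throughput counterscreen run to flag cytotoxic compounds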
[4] = decrease of insulin promoter-GFP reporter – imaging, high-content screening, mouse beta cells (AID 1628); type: functional; details: MIN6
[5] = biological target: Eukaryotic translation initiation factor 4E (Mus musculus, UniProt P63073); assay: blockers of eIF4G binding by eIF4E – biochemical, TR-FRET, dose response (AID 855); type: functional;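 note: potency for disrupting eIF4E binding to eIF4GI seen as loss of FRET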
Troponin, cardiac muscle = Troponin, cardiac muscle (Homo sapiens, UniProt P19429+P45379+P63316); assay: Fluorescence-based biochemical high throughput dose response assay for activators of the calcium sensitivity of cardiac Regulated Thin Filaments (RTF). [Related pubchem assays (depositor defined):AID493008, AID493018, AID504382, AID504383]; type: protein-complex assay
Mu-type opioid receptor [6] = biological target: T1, Mu-type opioid receptor (Homo sapiens, UniProt P35372); assay: mu opioid receptor activators, image-based, SAR follow-up (AID 2352); type: functional
[7] = biological target: T2, Delta-type opioid receptor (Homo sapiens, UniProt P41143); assay: delta opioid receptor blockers – image-based, SAR follow-up (AID 2357); type: functional
[8] = biological target: T3, Kappa-type opioid receptor (Homo sapiens, UniProt P41145); assay: kappa opioid receptor blockers, image-based, SAR follow-up (AID 2348); type: functional
[9] = biological target: T3, Kappa-type opioid receptor; assay: kappa opioid receptor activation potency – imaging, image-based, SAR follow-up (AID 2359); type: functional
Mu-type opioid receptor [10] = biological target: T1, Mu-type opioid receptor; assay: mu opioid receptor blockers – image-based, SAR follow-up (AID 2420); type: functional;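 note: compounds added before stimulation of receptor with agonist DAMGO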
[11] = biological target: T2, Delta-type opioid receptor; assay: DOR agonists, SAR follow-up, image-based (AID 2370); type: functional
[12] = biological target: T3, Kappa-type opioid receptor; assay: kappa opioid receptor blockers, cell-based, luminescence, beta-arrestin, SAR follow-up (AID 2285); type: functional
SUMO E1/E2 = SUMO E1/E2 (Homo sapiens, UniProt P63279+Q9UBE0+Q9UBT2); assay: SAR analysis of SUMOylation using HTRF in an in-Vitro dose response assay. [Related pubchem assays (depositor defined):AID2006, AID2011, AID2018, AID2069, AID2658]; type: functional
Beta-lactamase [13] = biological target: Beta-lactamase (Salmonella choleraesuis (strain SC-B67), UniProt Q5J463)
Beta-lactamase [14] = biological target: Beta-lactamase (Pseudomonas aeruginosa, UniProt Q79MP6);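 note: biochemical dose-response test of metallo-beta-lactamase enzyme inhibition, read out by epi-absorbance; purified recombinant IMP-1 metallo-beta-lactamase with nitrocefin as substrate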
BJ [15] = assay: BJ-TERT-LT-ST fibroblast viability loss – cell-based, RAS-independent, luminescence, dose response (AID 1935); type: functional; details: Homo sapiens;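 note: BJ fibroblasts immortalized with TERT plus LT and ST oncogenes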
HEK293 = assay: EBV LMP1 TES2 canonical NF-kB signalling blockers – cell-based, HEK293, luciferase, cherry-pick, dose response (AID 588343); type: functional; details: Homo sapiens
[16] = DRD fibroblast viability loss – cell-based, non-viral oncogenic, luminescence, dose response (AID 1934); type: functional; details: Homo sapiens
BJ [17] = assay: cells; type: functional, cell-based; details: Homo sapiens, read-out: EC50
cells [18] = type: functional, cell-based
Keap1/Nrf2 = Keap1/Nrf2 (Homo sapiens, UniProt Q14145); assay: disruptors of Keap1 binding to Nrf2 peptide – biochemical, fluorescence polarization, cherry-picked samples, dose response (AID 588683)
BJ [19] = assay: BJ-TERT fibroblast viability loss – cell-based, RAS-independent, luminescence, dose response (AID 1933); type: functional; details: Homo sapiens
cells [20] = type: functional, cell-based; remark: listed apart in the source

T3 sequence (P41145 whole entry): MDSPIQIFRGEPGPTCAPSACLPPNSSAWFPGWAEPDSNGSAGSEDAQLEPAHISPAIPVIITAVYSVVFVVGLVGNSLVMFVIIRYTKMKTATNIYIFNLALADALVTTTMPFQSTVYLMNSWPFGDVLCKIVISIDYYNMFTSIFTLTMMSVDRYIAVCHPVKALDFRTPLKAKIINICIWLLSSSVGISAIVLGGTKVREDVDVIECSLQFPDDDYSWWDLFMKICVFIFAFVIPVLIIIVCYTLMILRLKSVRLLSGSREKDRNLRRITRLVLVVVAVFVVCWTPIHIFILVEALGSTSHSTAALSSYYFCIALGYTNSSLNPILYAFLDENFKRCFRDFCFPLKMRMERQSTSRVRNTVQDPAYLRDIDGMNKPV
T2 sequence (P41143 whole entry): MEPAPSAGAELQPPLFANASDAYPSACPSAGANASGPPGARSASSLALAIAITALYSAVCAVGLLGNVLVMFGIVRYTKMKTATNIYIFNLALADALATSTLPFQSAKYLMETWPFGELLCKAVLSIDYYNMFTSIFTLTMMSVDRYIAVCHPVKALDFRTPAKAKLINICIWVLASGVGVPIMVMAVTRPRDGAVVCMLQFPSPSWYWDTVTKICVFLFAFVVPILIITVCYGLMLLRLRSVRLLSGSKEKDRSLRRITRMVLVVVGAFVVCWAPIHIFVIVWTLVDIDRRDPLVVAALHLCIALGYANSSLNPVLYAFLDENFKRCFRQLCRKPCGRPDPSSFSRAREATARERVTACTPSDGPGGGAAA
T1 sequence (P35372 whole entry): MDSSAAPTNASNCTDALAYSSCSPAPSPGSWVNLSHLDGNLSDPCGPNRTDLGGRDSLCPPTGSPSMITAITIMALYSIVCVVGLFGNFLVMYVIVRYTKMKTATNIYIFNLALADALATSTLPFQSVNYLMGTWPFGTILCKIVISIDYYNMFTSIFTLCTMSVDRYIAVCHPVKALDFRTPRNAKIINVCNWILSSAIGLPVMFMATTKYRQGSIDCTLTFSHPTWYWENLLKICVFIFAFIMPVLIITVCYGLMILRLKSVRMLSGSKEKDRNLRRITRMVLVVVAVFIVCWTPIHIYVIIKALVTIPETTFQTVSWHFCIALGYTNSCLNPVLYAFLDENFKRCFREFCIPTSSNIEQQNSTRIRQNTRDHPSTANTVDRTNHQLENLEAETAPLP
Sequence of Dual specificity protein kinase CLK1 (P49759 whole entry): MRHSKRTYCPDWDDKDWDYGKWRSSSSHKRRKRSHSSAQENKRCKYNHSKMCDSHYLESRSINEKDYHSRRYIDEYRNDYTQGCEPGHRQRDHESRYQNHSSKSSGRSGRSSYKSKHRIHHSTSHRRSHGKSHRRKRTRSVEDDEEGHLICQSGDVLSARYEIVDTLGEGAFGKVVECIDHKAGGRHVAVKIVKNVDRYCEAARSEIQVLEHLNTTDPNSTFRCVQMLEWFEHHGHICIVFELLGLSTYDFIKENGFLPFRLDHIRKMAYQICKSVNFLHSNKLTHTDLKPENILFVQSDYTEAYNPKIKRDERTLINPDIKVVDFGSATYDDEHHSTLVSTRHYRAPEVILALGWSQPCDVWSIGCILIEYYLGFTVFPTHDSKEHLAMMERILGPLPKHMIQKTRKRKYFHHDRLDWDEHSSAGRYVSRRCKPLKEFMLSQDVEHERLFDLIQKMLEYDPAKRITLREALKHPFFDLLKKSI
Sequence of Keap1/Nrf2 (Q16236 whole entry): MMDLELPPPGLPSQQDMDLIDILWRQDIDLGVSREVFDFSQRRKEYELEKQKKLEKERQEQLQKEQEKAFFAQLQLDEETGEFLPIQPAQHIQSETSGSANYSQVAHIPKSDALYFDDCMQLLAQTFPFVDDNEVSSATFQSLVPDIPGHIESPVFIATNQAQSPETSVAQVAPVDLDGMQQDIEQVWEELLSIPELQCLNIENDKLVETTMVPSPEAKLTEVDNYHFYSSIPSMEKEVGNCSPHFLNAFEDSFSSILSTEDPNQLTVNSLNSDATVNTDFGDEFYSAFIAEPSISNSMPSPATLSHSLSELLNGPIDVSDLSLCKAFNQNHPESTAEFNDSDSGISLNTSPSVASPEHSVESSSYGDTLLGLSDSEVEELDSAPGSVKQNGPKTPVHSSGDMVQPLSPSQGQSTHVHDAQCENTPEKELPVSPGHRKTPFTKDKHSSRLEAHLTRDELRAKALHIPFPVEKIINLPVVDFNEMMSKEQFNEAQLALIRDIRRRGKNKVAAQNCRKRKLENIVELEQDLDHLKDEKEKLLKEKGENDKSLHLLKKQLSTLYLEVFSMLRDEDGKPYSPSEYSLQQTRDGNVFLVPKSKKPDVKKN
Sequence of Keap1/Nrf2 (Q14145 whole entry): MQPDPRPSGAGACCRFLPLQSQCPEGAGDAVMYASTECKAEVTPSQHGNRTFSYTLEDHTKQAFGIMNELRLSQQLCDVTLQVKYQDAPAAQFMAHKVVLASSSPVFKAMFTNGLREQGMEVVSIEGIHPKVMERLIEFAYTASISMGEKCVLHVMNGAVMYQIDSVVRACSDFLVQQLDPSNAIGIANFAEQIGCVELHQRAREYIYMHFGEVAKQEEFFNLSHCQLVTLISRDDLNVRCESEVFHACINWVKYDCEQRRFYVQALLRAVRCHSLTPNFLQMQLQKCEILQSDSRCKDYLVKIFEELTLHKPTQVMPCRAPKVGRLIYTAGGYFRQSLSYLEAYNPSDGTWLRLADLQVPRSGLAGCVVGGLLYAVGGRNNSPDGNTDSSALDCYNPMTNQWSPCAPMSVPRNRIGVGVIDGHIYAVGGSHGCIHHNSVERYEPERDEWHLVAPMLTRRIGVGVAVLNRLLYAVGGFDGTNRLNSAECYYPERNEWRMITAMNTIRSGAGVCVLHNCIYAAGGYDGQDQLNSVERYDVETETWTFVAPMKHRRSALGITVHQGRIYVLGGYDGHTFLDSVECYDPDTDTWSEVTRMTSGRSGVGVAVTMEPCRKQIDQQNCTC
Sequence of Eukaryotic translation initiation factor 4E (P63073 whole entry): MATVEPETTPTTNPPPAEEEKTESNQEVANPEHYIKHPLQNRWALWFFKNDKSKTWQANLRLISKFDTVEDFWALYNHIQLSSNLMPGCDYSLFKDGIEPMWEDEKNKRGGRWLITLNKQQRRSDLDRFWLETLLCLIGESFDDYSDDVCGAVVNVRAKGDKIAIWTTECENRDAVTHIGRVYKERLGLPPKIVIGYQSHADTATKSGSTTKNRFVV
Sequence of Beta-lactamase (Salmonella choleraesuis (strain SC-B67), UniProt Q5J463) (Q5J463 whole entry): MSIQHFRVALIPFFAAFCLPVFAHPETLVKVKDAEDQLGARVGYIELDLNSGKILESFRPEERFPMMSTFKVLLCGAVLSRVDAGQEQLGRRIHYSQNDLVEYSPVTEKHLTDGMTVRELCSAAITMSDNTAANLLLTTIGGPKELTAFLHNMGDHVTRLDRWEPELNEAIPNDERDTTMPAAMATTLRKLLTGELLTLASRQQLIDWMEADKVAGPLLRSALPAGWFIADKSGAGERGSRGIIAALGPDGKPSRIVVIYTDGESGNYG
Sequence of SUMO E1/E2 (Q9UBE0 whole entry): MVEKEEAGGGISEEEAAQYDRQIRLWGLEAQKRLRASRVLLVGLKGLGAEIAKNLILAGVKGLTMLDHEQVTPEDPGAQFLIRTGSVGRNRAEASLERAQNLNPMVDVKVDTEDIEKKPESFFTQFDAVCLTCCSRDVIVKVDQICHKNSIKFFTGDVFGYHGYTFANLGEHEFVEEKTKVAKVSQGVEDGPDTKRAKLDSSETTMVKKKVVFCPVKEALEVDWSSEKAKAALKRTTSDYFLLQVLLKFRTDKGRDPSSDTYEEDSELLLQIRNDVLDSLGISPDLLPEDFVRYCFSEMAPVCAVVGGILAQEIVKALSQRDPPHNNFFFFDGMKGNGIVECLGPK
Sequence of SUMO E1/E2 (Q9UBT2 whole entry): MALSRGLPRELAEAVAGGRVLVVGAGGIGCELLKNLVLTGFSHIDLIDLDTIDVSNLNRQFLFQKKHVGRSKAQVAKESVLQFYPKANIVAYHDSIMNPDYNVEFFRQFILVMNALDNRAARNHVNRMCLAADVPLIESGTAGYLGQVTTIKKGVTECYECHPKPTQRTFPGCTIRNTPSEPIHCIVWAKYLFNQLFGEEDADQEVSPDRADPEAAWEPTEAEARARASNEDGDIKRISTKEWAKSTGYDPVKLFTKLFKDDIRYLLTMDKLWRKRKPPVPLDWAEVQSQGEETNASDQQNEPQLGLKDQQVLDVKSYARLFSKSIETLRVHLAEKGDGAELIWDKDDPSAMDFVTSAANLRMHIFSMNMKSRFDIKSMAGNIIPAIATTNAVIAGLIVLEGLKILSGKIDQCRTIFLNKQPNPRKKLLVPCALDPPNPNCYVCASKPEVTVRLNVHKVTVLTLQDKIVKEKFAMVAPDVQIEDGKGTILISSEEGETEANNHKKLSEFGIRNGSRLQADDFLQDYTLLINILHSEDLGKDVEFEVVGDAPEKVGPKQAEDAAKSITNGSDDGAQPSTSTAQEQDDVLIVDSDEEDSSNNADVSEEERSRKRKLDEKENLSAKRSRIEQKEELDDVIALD
Sequence of SUMO E1/E2 (P63279 whole entry): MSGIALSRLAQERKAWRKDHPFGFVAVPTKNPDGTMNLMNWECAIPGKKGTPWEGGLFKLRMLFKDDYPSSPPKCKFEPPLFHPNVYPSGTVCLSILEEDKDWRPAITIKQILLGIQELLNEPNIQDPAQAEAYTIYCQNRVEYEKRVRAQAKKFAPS
Sequence of Beta-lactamase (Pseudomonas aeruginosa, UniProt Q79MP6) (Q79MP6 whole entry): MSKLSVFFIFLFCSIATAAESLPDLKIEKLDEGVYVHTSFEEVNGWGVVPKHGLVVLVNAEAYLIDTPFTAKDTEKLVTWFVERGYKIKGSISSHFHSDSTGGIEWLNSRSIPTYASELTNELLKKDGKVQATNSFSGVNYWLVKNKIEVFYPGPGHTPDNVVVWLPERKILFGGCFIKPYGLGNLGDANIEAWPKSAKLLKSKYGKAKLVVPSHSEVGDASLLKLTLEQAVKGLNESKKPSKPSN

In the case of `Cc1nc(NC(=O)c2ccccc2)sc1-c1csc(NCc2ccco2)n1`, the AC50 [1] is reported as 7.53 µM (active) and the AC50 [2] is reported as 0.579 µM (active).

For `O=C(CSC1=NCCS1)Nc1ccnc2ccccc12`, the AC50 (INS1) was 12.1 µM (active), the IC50 [3] was 1.34 µM (active) and the IC50 [4] was 1.69 µM (active).

With `COC(=O)C1=C(C)NC(=O)C1(Nc1ccc(Cl)cn1)C(F)(F)F` (stereo not given) the IC50 [5] was > 64 µM (inactive).

In the case of `Cc1cc(/C=C2/C(=O)N(C)C(=S)N2C)ccc1N1CCCC1`, the EC50 (Troponin, cardiac muscle) is reported as 1.55 µM (active).

In the case of `O=C(NC(NC(=S)Nc1ccc(Br)cc1)C(Cl)(Cl)Cl)OCc1ccccc1` (stereo not given), the EC50 (Mu-type opioid receptor [6]) is reported as > 32 µM (inactive), the IC50 [7] is reported as > 32 µM (inactive) and the IC50 [8] is reported as > 32 µM (inactive). The EC50 [9] was > 32 µM (inactive), the IC50 (Mu-type opioid receptor [10]) was > 32 µM (inactive) and the EC50 [11] was > 32 µM (inactive). For the same compound, the IC50 [12] was > 10 µM (inactive).

In the case of `Cc1ccc(NC(=S)NC(NC(=O)OCc2ccccc2)C(Cl)(Cl)Cl)c(C)c1` (stereo not given), the EC50 (Mu-type opioid receptor [6]) is reported as > 32 µM (inactive), the IC50 [7] is reported as > 32 µM (inactive) and the IC50 [8] is reported as 1.98 µM (active). For the same compound, the EC50 [9] was > 32 µM (inactive), the IC50 (Mu-type opioid receptor [10]) was > 32 µM (inactive) and the EC50 [11] was > 32 µM (inactive). The IC50 [12] was 8.74 µM (active).

In the case of `Cc1ccsc1C=Nc1ccccc1O`, the IC50 (SUMO E1/E2) is reported as > 100 µM (inactive).

For `O=[N+]([O-])c1cc(Nc2nccc(-c3ccc4c(c3)OCO4)n2)cc(C(F)(F)F)c1`, the AC50 [2] was 5.45 µM (active).

With `CN(/N=C/c1ccc(-c2ccc([N+](=O)[O-])cc2)o1)c1ccccc1` the IC50 (Beta-lactamase [13]) was > 59.6 µM (inactive), the EC50 (Troponin, cardiac muscle) was 1.44 µM (active) and the IC50 (Beta-lactamase [14]) was > 59.6 µM (inactive).

With `CCN(CC)c1ccc(/C=N/NC(=O)c2c(Cl)cnn2C)c(O)c1` the EC50 (BJ [15]) was 3.26 µM (active), the AC50 (INS1) was 0.327 µM (active) and the AC50 (HEK293) was 4.49 µM (active). The EC50 [16] was 1.13 µM (active), the EC50 (BJ [17]) was 5.01 µM (active) and the EC50 (cells [18]) was 6.42 µM (active). For the same compound, the AC50 (Keap1/Nrf2) was > 52 µM (inactive), the EC50 (BJ [19]) was 0.97 µM (active) and the EC50 (cells [20]) was 35.9 µM (active).

From ChEMBL document CHEMBL1201862, “PubChem BioAssay data set” (2004)
